Here are results for one molecule from US5629469A, “Thiol protease inhibitor” (Sandoz Ltd., priority 1995, dated 1997).

In one assay the test system is wCRW larvae. Description: Artificial diet bioassay, neonate wCRW larvae. The class given is in vivo. The note with it: Diabrotica virgifera, 144 h; diet supplemented with 0.01%; mortality at day 6; read-out: % wCRW mortality ± SE. How it is done:
Neonate wCRW larvae are allowed to feed on BioServe, a standard artificial diet used for southern corn rootworm. The diet is supplemented with the treatments indicated below in Table 3. Two or 3 larvae are placed in treatment wells with 9 replicate wells used per treatment. The larvae are allowed to feed on the diet and mortality is evaluated at day 6.

For assay [1], the system named is proteolytic activity in the midgut extracts. The note with it: three species of beetles; cited from earlier work.

SMILES strings stand for the structures.

In general, mortality refers to the share of the test organisms that died. As for `CC(C)C[C@H](NC(=O)[C@H]1O[C@@H]1C(=O)O)C(=O)NCCCCN=C(N)N` [E64, [N-(L-3 transcarrboxyoxiran-2-carbonyl)-L-leucyl]-amido(4-guanido)-butane], the mortality at 0.01 % with wCRW larvae was determined as 80 ± 8%. The “inhibition of proteolytic activity in midgut extracts” value in assay [1] is “much or most of the proteolytic activity in the midgut extracts was inhibited”.
